Our source for the IC50 values is ChEMBL document CHEMBL5143682, “Design and synthesis of cinnamic acid triptolide ester derivatives as potent antitumor agents and their biological evaluation” (Bioorg Med Chem Lett, 2022).

The assay relates to HepG2. As to the kind of experiment: Antiproliferative activity against human HepG2 cells assessed as reduction in cell viability measured after 48 hrs by CCK-8 assay. The format is functional, cell-based. The settings on record: HepG2, 48 h. On the technique in general: Tetrazolium dyes change colour on reduction, which living cells bring about.

`COc1cc(/C=C/C(=O)O[C@@H]2[C@@]3(C(C)C)O[C@H]3[C@@H]3O[C@]34[C@]23O[C@H]3C[C@H]2C3=C(CC[C@@]24C)C(=O)OC3)cc(OC)c1OC`: the half-inhibitory concentration (IC50) turned out to be 689 nM.
Turning to `CCOP(=O)(OCC)Oc1ccc(/C=C/C(=O)O[C@@H]2[C@@]3(C(C)C)O[C@H]3[C@@H]3O[C@]34[C@]23O[C@H]3C[C@H]2C3=C(CC[C@@]24C)C(=O)OC3)cc1`, the 50% inhibitory concentration (IC50) came out at 578 nM.
Consider `COc1ccc(/C=C/C(=O)O[C@@H]2[C@@]3(C(C)C)O[C@H]3[C@@H]3O[C@]34[C@]23O[C@H]3C[C@H]2C3=C(CC[C@@]24C)C(=O)OC3)cc1OC`, for which the concentration for half-maximal inhibition (IC50) amounted to 686 nM.
As for `CC(C)[C@]12O[C@H]1[C@@H]1O[C@]13[C@]1(O[C@H]1C[C@H]1C4=C(CC[C@@]13C)C(=O)OC4)[C@@H]2OC(=O)/C=C/c1cc(Br)ccc1F`, the figure is 591 nM.
Regarding `CC(C)[C@]12O[C@H]1[C@@H]1O[C@]13[C@]1(O[C@H]1C[C@H]1C4=C(CC[C@@]13C)C(=O)OC4)[C@@H]2OC(=O)/C=C/c1ccc(C(F)(F)F)cc1`, the half-inhibitory concentration (IC50) was 899 nM.
As for `CC(C)[C@]12O[C@H]1[C@@H]1O[C@]13[C@]1(O[C@H]1C[C@H]1C4=C(CC[C@@]13C)C(=O)OC4)[C@@H]2O` [TRIPTOLIDE], the figure is 468 nM; as for `COc1cc(/C=C/C(=O)O[C@@H]2[C@@]3(C(C)C)O[C@H]3[C@@H]3O[C@]34[C@]23O[C@H]3C[C@H]2C3=C(CC[C@@]24C)C(=O)OC3)cc([N+](=O)[O-])c1OC`, 663 nM; as for `CC(C)[C@]12O[C@H]1[C@@H]1O[C@]13[C@]1(O[C@H]1C[C@H]1C4=C(CC[C@@]13C)C(=O)OC4)[C@@H]2OC(=O)/C=C/c1ccc(C#N)cc1`, 591 nM.
Turning to `CCc1ccc(/C=C/C(=O)O[C@@H]2[C@@]3(C(C)C)O[C@H]3[C@@H]3O[C@]34[C@]23O[C@H]3C[C@H]2C3=C(CC[C@@]24C)C(=O)OC3)cc1`, the 50% inhibitory concentration (IC50) worked out at 454 nM.
The figure for `COc1ccc(/C=C/C(=O)O[C@@H]2[C@@]3(C(C)C)O[C@H]3[C@@H]3O[C@]34[C@]23O[C@H]3C[C@H]2C3=C(CC[C@@]24C)C(=O)OC3)cc1` is 654 nM.
As for `CC(C)[C@]12O[C@H]1[C@@H]1O[C@]13[C@]1(O[C@H]1C[C@H]1C4=C(CC[C@@]13C)C(=O)OC4)[C@@H]2OC(=O)/C=C/c1ccc(Br)cc1`, the figure is 838 nM.
With `CC(C)[C@]12O[C@H]1[C@@H]1O[C@]13[C@]1(O[C@H]1C[C@H]1C4=C(CC[C@@]13C)C(=O)OC4)[C@@H]2OC(=O)/C=C/c1ccccc1N1CCCCC1`, the concentration for half-maximal inhibition (IC50) stood at 1720 nM.
On to `CC(C)[C@]12O[C@H]1[C@@H]1O[C@]13[C@]1(O[C@H]1C[C@H]1C4=C(CC[C@@]13C)C(=O)OC4)[C@@H]2OC(=O)/C=C/c1ccc(S(C)(=O)=O)cc1`, for which the 50% inhibitory concentration (IC50) was 564 nM.
On to `CC(C)[C@]12O[C@H]1[C@@H]1O[C@]13[C@]1(O[C@H]1C[C@H]1C4=C(CC[C@@]13C)C(=O)OC4)[C@@H]2OC(=O)CCc1cccnc1`, for which the half-maximal inhibitory concentration (IC50) was 839 nM.
As to `CC(C)[C@]12O[C@H]1[C@@H]1O[C@]13[C@]1(O[C@H]1C[C@H]1C4=C(CC[C@@]13C)C(=O)OC4)[C@@H]2OC(=O)/C=C/c1cccnc1`, the IC50 turned out to be 538 nM.
The figure for `CC(C)[C@]12O[C@H]1[C@@H]1O[C@]13[C@]1(O[C@H]1C[C@H]1C4=C(CC[C@@]13C)C(=O)OC4)[C@@H]2OC(=O)/C=C/c1ccc(N2CCOCC2)cc1` is 783 nM.
The figure for `CC(C)[C@]12O[C@H]1[C@@H]1O[C@]13[C@]1(O[C@H]1C[C@H]1C4=C(CC[C@@]13C)C(=O)OC4)[C@@H]2OC(=O)/C=C/c1ccc(N(C)C)cc1` is 696 nM.
As for `CC(C)[C@]12O[C@H]1[C@@H]1O[C@]13[C@]1(O[C@H]1C[C@H]1C4=C(CC[C@@]13C)C(=O)OC4)[C@@H]2OC(=O)/C=C/c1ccc(N2CCCCC2)cc1`, the figure is 620 nM; as for `COc1cc(CCC(=O)O[C@@H]2[C@@]3(C(C)C)O[C@H]3[C@@H]3O[C@]34[C@]23O[C@H]3C[C@H]2C3=C(CC[C@@]24C)C(=O)OC3)ccc1O`, 818 nM.
As for `CC(C)[C@]12O[C@H]1[C@@H]1O[C@]13[C@]1(O[C@H]1C[C@H]1C4=C(CC[C@@]13C)C(=O)OC4)[C@@H]2OC(=O)/C=C/c1ccc([N+](=O)[O-])cc1`, the 50% inhibitory concentration (IC50) was 695 nM.
As for `CC(C)[C@]12O[C@H]1[C@@H]1O[C@]13[C@]1(O[C@H]1C[C@H]1C4=C(CC[C@@]13C)C(=O)OC4)[C@@H]2OC(=O)/C=C/c1ccccc1F`, the figure is 381 nM; as for `COc1cc(/C=C/C(=O)O[C@@H]2[C@@]3(C(C)C)O[C@H]3[C@@H]3O[C@]34[C@]23O[C@H]3C[C@H]2C3=C(CC[C@@]24C)C(=O)OC3)ccc1OCc1ccccc1`, 1020 nM; as for `CCOP(=O)(OCC)Oc1ccc(/C=C/C(=O)O[C@@H]2[C@@]3(C(C)C)O[C@H]3[C@@H]3O[C@]34[C@]23O[C@H]3C[C@H]2C3=C(CC[C@@]24C)C(=O)OC3)cc1OC`, 355 nM.
In the case of `CC(C)[C@]12O[C@H]1[C@@H]1O[C@]13[C@]1(O[C@H]1C[C@H]1C4=C(CC[C@@]13C)C(=O)OC4)[C@@H]2OC(=O)/C=C/c1ccccc1`, the IC50 is 413 nM.
The figure for `CC(C)[C@]12O[C@H]1[C@@H]1O[C@]13[C@]1(O[C@H]1C[C@H]1C4=C(CC[C@@]13C)C(=O)OC4)[C@@H]2OC(=O)/C=C/c1ccc(F)cc1` is 439 nM.

A word on the IC50: it is the point on the concentration scale where inhibition reaches its midpoint.
